Entries after “also recorded” stand apart in the source; their conditions may differ. Like-named read-outs stand apart in the source and are kept apart here. Where only a bound is given, the exact number is not on record here.

Consider four compounds from US20260001875A1, “AMINOPYRIMIDINYL DERIVATIVES FOR THE TREATMENT OF PARKINSON'S DISEASE” (UNIVERSITY OF DUNDEE, priority 2022, published 2026).

The target in one assay is VHL (Homo sapiens, UniProt P40337). Nature of the assay: Fluorescence polarization competitive binding assay. Conditions: for Ki: displacement of FAM-labelled HIF-1α peptide from VCB. Here is the method: FP competitive binding assays were performed following the method described previously (Bond et al, J. Med. Chem. 2021, 64 (20), 15477-15502.). All the measurements were taken on a PHERstar (BMG LABTECH) plate reader installed with a FP filter that sets excitation and emission wavelengths at 485 nm and 520 nM separately. Each well of 384-well plate (Coring 3575) contains 10 nM VCB protein, 5 nM FAM-lableled HIF-1α peptide (FAM-DEALAHyp[…], “JC9”), and decreasing concentrations of PROTACs (14 concentrations with 2-fold serial dilution starting from 250 μM) in FP assay buffer (100 mM Bis-Tris propane, 100 mM NaCl, 1 mM TCEP, pH 7) with a final DMSO concentration of 5%. The control wells containing the VCB and JC9 with no compound are set as the maximum signals (zero displacement). And the control wells containing JC9 in the absence of protein are set as the minimum signals. Control values were used to obtain the percentage of displacement which was graphed against Log [Compound]. Average IC50 values were determined for each titration using nonlinear regression analysis with Prism (v.9.3.1).
(Polarisation of emitted light reports the rotation of a fluorescent probe.)

In a further assay the target is LRRK2 (Homo sapiens, UniProt Q5S007). Nature of the assay: NanoBRET LRRK2 target engagement in HEK293 cells. The assay is classed as binding. The note with it: for IC50: read-out: IC50 LRRK2 tracer displacement. On the set-up: host or cells: HEK293. Here is the method: For VHL and LRRK2 target engagement experiments in live and permeabilized cells, the HEK293 cells were transfected with VHL-NanoLuc fusion vector (Promega, N275A) or LRRK2-NanoLuc fusion vector (Promega, NV3401) following Promega's protocol and seeded into white 384-well plate (Corning3570) at a density of 6000 cells/well. To measure NanoBRET in permeabilized cells, the cells were treated with 50 μg/mL digitonin (Sigma, D141), 125 nM VHL tracer/125 nM LRRK2 tracer, testing compounds at decreasing concentrations (12 concentrations with 2-fold serial dilution starting from 33 μM), and NanoBRET NanoGlo Substrate (Promega) at concentration recommended by the manufacturer's protocol. In the maximum signal control samples (DMSO control), DMSO was added instead of testing compounds. In the minimum signal control samples (no tracer control), DMSO and tracer dilution buffer were used to replace testing compounds and tracer separately. The filtered luminescence was measured within 10 min following addition of the substrate on a GloMax Discover microplate reader (Promega) or a PHERAstar (BMG LABTECH) plate reader equipped with a 450-nm bandpass filter (donor) and a 600-nm long pass filter (acceptor). To measure NanoBRET in live cells, the cells were treated with 250 nM VHL tracer/500 nM LRRK2 tracer, testing compounds at testing compounds at decreasing concentrations (12 concentrations with 2-fold serial dilution starting from 33 μM) and incubated at 37° C. in an incubator for 2 h. The plates were then cooled down and added with NanoBRET NanoGlo Substrate and Extracellular NanoLuc Inhibitor (Promega, N2160) before performing the same NanoBRET reading as the permeabilized mode on plate readers. NanoBRET ratio of each well was expressed in milliBRET according to the equation: mBRET=[(signal at […]/signal at 450 nM)−(signal at 610 nMno tracer control/signal at 450 nMno tracer control)]×1000. The fractional occupancy was calculated according to the equation: fractional occupancy=(mBRETtesting compound−mBRETno tracer control)/(mBRETDMSO control−mBRETno tracer control).
On the technique in general: In BRET a luciferase serves as donor, and the signal depends on an acceptor being close.

The term Ki denotes the equilibrium dissociation constant of an inhibitor or competing ligand from its target. A low value points to tighter binding. As a reminder, the IC50 is the midpoint of a concentration-inhibition curve. For the compound `CNc1nc(Nc2ccc(C(=O)N3CCN(C[C@H]4CC[C@@H](CSC(C)(C)[C@H](NC(=O)C5(F)CC5)C(=O)N5C[C@H](O)CC5C(=O)NCc5ccc(-c6scnc6C)cc5)CC4)CC3)cc2OC)ncc1Cl` (stereo partly drawn) [XL01134], the Ki at VHL was determined as 0.16 µM. Also, the IC50 at LRRK2 (live HEK293 cells) turned out to be 2.2 µM; on LRRK2 (permeabilized HEK293 cells), 2 µM.
Compound `CNc1nc(Nc2ccc(C(=O)N3CCN(CCOCCOCCSC(C)(C)[C@H](NC(=O)C4(F)CC4)C(=O)N4C[C@H](O)C[C@H]4C(=O)NCc4ccc(-c5scnc5C)cc4)CC3)cc2OC)ncc1Cl` [SD75, (2S,4R)-1-((R)-3-((2-(2-(2-(4-(4-((5-chloro-4-(methylamino)pyrimidin-2-yl)amino)-3-methoxybenzoyl)piperazin-1-yl)ethoxy)ethoxy)ethyl)thio)-2-(1-fluorocyclopropane-1-carboxamido)-3-methylbutanoyl)-4-hydroxy-N-(4-(4-methylthiazol-5-yl)benzyl)pyrrolidine-2-carboxamide] gave a Ki at VHL of 0.82 µM. Moreover, the results for the IC50 on LRRK2 (live HEK293 cells) and on LRRK2 (permeabilized HEK293 cells) were 1.8 µM and 0.78 µM, respectively. Also, on LRRK2 (permeabilized vs live mode), the “IC50 ratio IC50, per/IC50, live (LRRK2 engagement)” value is recorded as 0.43.
Take `CNc1nc(Nc2ccc(C(=O)N3CCN(C[C@H]4CC[C@H](CSC(C)(C)[C@H](NC(=O)C5(F)CC5)C(=O)N5C[C@H](O)CC5C(=O)NCc5ccc(-c6scnc6C)cc5)CC4)CC3)cc2OC)ncc1Cl` (stereo partly drawn) [XL01126, (2S,4R)-1-((R)-3-((((1R,4R)-4-((4-(4-((5-chloro-4-(methylamino)pyrimidin-2-yl)amino)-3-methoxybenzoyl)piperazin-1-yl)methyl)cyclohexyl)methyl)thio)-2-(1-fluorocyclopropane-1-carboxamido)-3-methylbutanoyl)-4-hydroxy-N-(4-(4-methylthiazol-5-yl)benzyl)pyrrolidine-2-carboxamide]: on VHL, the Ki was in the range of 0.908 to 5.95 µM. Besides, on LRRK2 (live HEK293 cells), the IC50 stood at 1.4 µM. For the same compound, at LRRK2 (permeabilized HEK293 cells), the “LRRK2 tracer displacement (in words)” value was “poor displacement”.
`CNc1nc(Nc2ccc(C(=O)N3CCN(C[C@H]4CC[C@H](CSC(C)(C)[C@H](NC(=O)C5(F)CC5)C(=O)N5C[C@@H](O)CC5C(=O)NCc5ccc(-c6scnc6C)cc5)CC4)CC3)cc2OC)ncc1Cl` (stereo partly drawn) [Cis-XL01126, (2S,4S)-1-((R)-3-((((1r,4R)-4-((4-(4-((5-chloro-4-(methylamino)pyrimidin-2-yl)amino)-3-methoxybenzoyl)piperazin-1-yl)methyl)cyclohexyl)methyl)thio)-2-(1-fluorocyclopropane-1-carboxamido)-3-methylbutanoyl)-4-hydroxy-N-(4-(4-methylthiazol-5-yl)benzyl)pyrrolidine-2-carboxamide]: the Ki on VHL is above 50 µM. Besides, the “binding to VHL (in words)” value at VHL (fluorescence polarization) is “does not bind to VHL E3 ligase; also recorded: did not displace the fluorescent tracer”.
